# How the values were obtained:
# [1] = test system: p-Btk(Y223) in CD20+ B cells; assay: Phosphoflow cytometry of p-Btk(Y223) in CD20+ B cell gate of healthy PBMCs; format: cell-based; conditions: 2 hours incubation, anti-IgM or anti-IgM+SDF-1 for 5 minutes, low nM concentrations, FIG. 1
# Protocol: (§1) Cells were then analyzed by phosphoflow cytometry and p-Btk(Y223) was measured in the CD20+ B cell gate and the CD14^+ monocyte gate separately. In B cells, BTK phosphorylation in anti-IgM stimulated B cells is increased with the addition of SDF-1 (CXCL-12) in the “No drug” condition. […] In monocytes, BTK phosphorylation is only observed when SDF-1 is present.
# [2] = test system: p-Btk(Y223) in CD14+ monocytes; assay: Phosphoflow cytometry of p-Btk(Y223) in CD14+ monocyte gate of healthy PBMCs; format: cell-based; conditions: SDF-1 stimulation, FIG. 2
# Protocol: as §1
# [3] = test system: CXCR4 surface expression in B-CLL cells; assay: CXCR4 surface expression in B-CLL cells of CLL patients after administration; format: in vivo, human; conditions: CLL patients with 17p deletion, blood 4, 24, 48 hours after day 3 dose
# Protocol: Drug was given for 3 days. Blood was drawn predose, and then 4, 24, and 48 hours after the day 3 dose.
# RANK MDA-MB231 = RANK MDA-MB231 mouse experiment (bone metastases, bioluminescence imaging); format: in vivo; conditions: ~10 and ~50 mg/kg/day PO, 2 weeks of treatment, FIG. 9
# Source text: FIG. 9 illustrates the results of a RANK MDA-MB231 mouse experiment. […] The primary endpoint was bioluminescence imaging (weekly). The secondary endpoints were serum CTx (bone resorption) and serum P1NP (bone formation).
structure (smiles),measurement,setting,value
"CC#CC(=O)N1CCC[C@H]1c1nc(-c2ccc(C(=O)Nc3ccccn3)cc2)c2c(N)nccn12 [Formula (II), (S)-4-(8-amino-3-(1-(but-2-ynoyl)pyrrolidin-2-yl)imidazo[1,5-a]pyrazin-1-yl)-N-(pyridin-2-yl)benzamide]","BTK phosphorylation, p-Btk(Y223), in B cells",[1],inhibited
same,SDF-1/CXCR4 signaling (SDF-1 induced p-Btk) in monocytes,[2],inhibits
same,CXCR4 surface expression in B-CLL cells compared to predose,"[3]; 100 mg BID for 3 days, FIG. 3",reduced
same,CXCR4 surface expression in B-CLL cells compared to predose,"[3]; 200 mg QD for 3 days, FIG. 4",reduced
same,Bone metastases (bioluminescence imaging),RANK MDA-MB231,dose-response reduction

# Source: patent publication US9937171B2, “Methods of blocking the CXCR-4/SDF-1 signaling pathway with inhibitors of bruton's tyrosine kinase” (Acerta Pharma B.V., priority 2014, dated 2018)
